# Patent publication US9617244B2, “Antibacterial quinoline derivatives” (JANSSEN PHARMACEUTICA NV, priority 2012, dated 2017)
# Tested on: Mycobacterium smegmatis (ATCC607)
# Experiment: In-vitro anti-bacterial activity against strain M. Smegmatis ATCC607
# Assay type: cell-based
# Settings: 90% inhibitory concentration for bacterial growth, 48 hours, Alamar Blue fluorescence
# Protocol: D.1. In-Vitro Method for Testing Compounds for Anti-Bacterial Activity Against Strain M. Smegmatis ATCC607
# Flat-bottom, sterile 96-well plastic microtiter plates were filled with 180 μl of sterile deionized water, supplemented with 0.25% BSA. Subsequently, stock solutions (7.8× final test concentration) of compounds were added in 45 μl volumes to a series of duplicate wells in column 2 so as to allow evaluation of their effects on bacterial growth. Serial five-fold dilutions (45 μl in 180 μl) were made directly in the microtiter plates from column 2 to 11 using a customised robot system (Zymark Corp., Hopkinton, Mass.). Pipette tips were changed after every 3 dilutions to minimize pipetting errors with high hydrophobic compounds. Untreated control samples with (column 1) and without (column 12) inoculum were included in each microtiter plate. Approximately 250 CFU per well of bacteria inoculum, in a volume of 100 μl in 2.8× Mueller-Hinton broth medium, was added to the rows A to H, except column 12. The same volume of broth medium without inoculum was added to column 12 in row A to H. The cultures were incubated at 37° C. for 48 hours in a humidified 5% CO2 atmosphere (incubator with open air valve and continuous ventilation). At the end of incubation, two days after inoculation, the bacterial growth was quantitated fluorometrically. Therefore Alamar Blue (10×) was added to all wells in a volume of 20 μl and plates were incubated for another 2 hours at […]
# The fluorescence was read in a computer-controlled fluorometer (Cytofluor, Biosearch) at an excitation wavelength of 530 nm and an emission wavelength of 590 nm (gain 30). The percentage growth inhibition achieved by the compounds was calculated according to standard methods and expressed as IC90 (μg/ml) which defines the 90% inhibitory concentration for bacterial growth.
row,IC90 MSM 607 [µg/mL],SMILES
1,1.20,COc1nc2ccc(SC)cc2cc1C(c1cccc(Cl)c1)C1(O)CCNC(c2ccc(F)cc2C)C1 (centres unmarked) [Compound 163]
2,2.38,COc1nc2ccc(SC)cc2cc1C(c1cccc(Cl)c1)C1(O)CCNC(c2ccc(F)cc2C)C1 (centres unmarked) [Compound 164]
3,3.61,COc1nc2ccc(SC)cc2cc1C(c1cccc(Cl)c1)C1(O)CCNC(c2ccc(F)cc2C)C1 (centres unmarked) [Compound 165]
4,1.95,COc1nc2ccc(SC)cc2cc1C(c1cccc(Cl)c1)C1(O)CCNC(c2ccc(F)cc2C)C1 (centres unmarked) [Compound 166]
5,1.26,COc1nc2ccc(SC)cc2cc1C(c1ccccc1)C1(O)CCNC(c2ccc(F)cc2C)C1 (centres unmarked) [Compound 167]
6,3.94,COc1nc2ccc(SC)cc2cc1C(c1ccccc1)C1(O)CCNC(c2ccc(F)cc2C)C1 (centres unmarked) [Compound 169]
7,4.69,COc1nc2ccc(SC)cc2cc1C(c1ccccc1)C1(O)CCNC(c2ccc(F)cc2C)C1 (centres unmarked) [Compound 170]
8,2.78,CSc1ccc2[nH]c(=O)c(C(c3cccc(Cl)c3)C3(O)CCNC(c4ccc(F)cc4C)C3)cc2c1 (centres unmarked) [Compound 177]
9,6.15,CSc1ccc2[nH]c(=O)c(C(c3ccccc3)C3(O)CCNC(c4ccc(F)cc4C)C3)cc2c1 (centres unmarked) [Compound 179]
10,3.31,CSc1ccc2nc(O)c(C(c3ccccc3)C3(O)CCNC(c4ccc(F)cc4C)C3)cc2c1 (centres unmarked) [Compound 183]
11,1.76,COc1nc2ccc(SC)cc2cc1C(c1ccc(Cl)cc1)C1(O)CCNC(Cc2ccc(F)c(F)c2)C1 (centres unmarked) [Compound 190]
12,13.96,Cc1cc(F)ccc1C1CC(O)(C(c2ccccc2)c2cc3cc(Br)ccc3[nH]c2=O)CCN1 (centres unmarked) [Compound 192]
13,2.52,COc1nc2ccc(SC)cc2cc1C(c1ccccc1)C1(O)CCNC(c2ccc(F)cc2C)C1 (centres unmarked) [Compound 196]
14,>19.28,COc1nc2ccc(S(C)(=O)=O)cc2cc1C(c1ccc(Cl)cc1)C1(O)CCNC(c2ccc(F)cc2C)C1 (centres unmarked) [Compound 201]
15,7.23,CSc1ccc2[nH]c(=O)c(C(c3ccc(Cl)cc3)C3(O)CCNC(Cc4ccc(F)c(F)c4)C3)cc2c1 (centres unmarked) [Compound 204]
16,14.75,COc1nc2ccc(S(C)(=O)=O)cc2cc1C(c1ccc(Cl)cc1)C1(O)CCNC(Cc2ccc(F)c(F)c2)C1 (centres unmarked) [Compound 209]
17,2.94,COc1nc2ccc(S(C)(=O)=O)cc2cc1C(c1ccc(Cl)cc1)C1(O)CCNC(Cc2ccc(F)c(F)c2)C1 (centres unmarked) [Compound 210]
18,6.04,CS(=O)(=O)c1ccc2[nH]c(=O)c(C(c3ccc(Cl)cc3)C3(O)CCNC(Cc4ccc(F)c(F)c4)C3)cc2c1 (centres unmarked) [Compound 212]
19,>17.31,CS(=O)(=O)c1ccc2[nH]c(=O)c(C(c3ccc(Cl)cc3)C3(O)CCNC(Cc4ccc(F)c(F)c4)C3)cc2c1 (centres unmarked) [Compound 213]

# Tested on: Staphylococcus aureus (ATCC29213)
# Experiment: In-vitro anti-bacterial activity, microtitre plate assay, IC90 determination (non-mycobacterial strains)
# Assay type: cell-based
# Settings: 90% inhibitory concentration for bacterial growth, 24 hours, resazurin fluorescence
# Protocol: D.2. In-Vitro Method for Testing Compounds for Anti-Bacterial Activity Against Various Non-Mycobacterial Strains
# Preparation of Bacterial Suspensions for Susceptibility Testing:
# The bacteria used in this study were grown overnight in flasks containing 100 ml Mueller-Hinton Broth (Becton Dickinson—cat. no. 275730) in sterile de-ionized water, with shaking, at 37° C. Stocks (0.5 ml/tube) were stored at −70° C. until use. Bacteria titrations were performed in microtiter plates to detect the TCID50, in which TCID50 represents the dilution that gives rise to bacterial growth in 50% of inoculated cultures. In general, an inoculum level of approximately 100 TCID50 was used for susceptibility testing.
# Anti Bacterial Susceptibility Testing: IC90 Determination
# Flat-bottom, sterile 96-well plastic microtiter plates were filled with 180 μl of sterile deionized water, supplemented with 0.25% BSA. Subsequently, stock solutions (7.8× final test concentration) of compounds were added in 45 μl volumes in column 2 Serial five-fold dilutions (45 μl in 180 μl) were made directly in the microtiter plates from column 2 to reach column 11. Untreated control samples with (column 1) and without (column 12) inoculum were included in each microtiter plate. Depending on the bacteria type, approximately 10 to 60 CFU per well of bacteria inoculum (100 TCID50), in a volume of 100 μl in 2.8× Mueller-Hinton broth medium, was added to the rows A to H, except column 12. The same volume of broth medium without inoculum was added to column 12 in row A to H. The cultures were incubated at 37° C. for 24 hours under a normal atmosphere (incubator with open air valve and continuous ventilation). At the end of incubation, one day after inoculation, the bacterial growth was quantitated fluorometrically. Therefore resazurin (0.6 mg/ml) was added in a volume of 20 μl to all wells 3 hours after inoculation, and the plates were re-incubated overnight. A change in colour from blue to pink indicated the growth of bacteria. The fluorescence was read in a computer-controlled fluorometer (Cytofluor Biosearch) at an excitation wavelength of 530 nm and an emission wavelength of 590 nm. The % growth inhibition achieved by the compounds was calculated according to standard methods. The IC90 (expressed in μg/ml) was defined as the 90% inhibitory concentration for bacterial growth.
row,IC90 STA B29213 [µg/mL],SMILES
1,1.70,COc1nc2ccc(SC)cc2cc1C(c1cccc(Cl)c1)C1(O)CCNC(c2ccc(F)cc2C)C1 (centres unmarked) [Compound 163]
2,4.23,COc1nc2ccc(SC)cc2cc1C(c1cccc(Cl)c1)C1(O)CCNC(c2ccc(F)cc2C)C1 (centres unmarked) [Compound 164]
3,5.10,COc1nc2ccc(SC)cc2cc1C(c1cccc(Cl)c1)C1(O)CCNC(c2ccc(F)cc2C)C1 (centres unmarked) [Compound 165]
4,3.09,COc1nc2ccc(SC)cc2cc1C(c1cccc(Cl)c1)C1(O)CCNC(c2ccc(F)cc2C)C1 (centres unmarked) [Compound 166]
5,3.17,COc1nc2ccc(SC)cc2cc1C(c1ccccc1)C1(O)CCNC(c2ccc(F)cc2C)C1 (centres unmarked) [Compound 167]
6,4.96,COc1nc2ccc(SC)cc2cc1C(c1ccccc1)C1(O)CCNC(c2ccc(F)cc2C)C1 (centres unmarked) [Compound 169]
7,5.27,COc1nc2ccc(SC)cc2cc1C(c1ccccc1)C1(O)CCNC(c2ccc(F)cc2C)C1 (centres unmarked) [Compound 170]
8,1.76,CSc1ccc2[nH]c(=O)c(C(c3cccc(Cl)c3)C3(O)CCNC(c4ccc(F)cc4C)C3)cc2c1 (centres unmarked) [Compound 177]
9,8.69,CSc1ccc2[nH]c(=O)c(C(c3ccccc3)C3(O)CCNC(c4ccc(F)cc4C)C3)cc2c1 (centres unmarked) [Compound 179]
10,3.31,CSc1ccc2nc(O)c(C(c3ccccc3)C3(O)CCNC(c4ccc(F)cc4C)C3)cc2c1 (centres unmarked) [Compound 183]
11,1.39,COc1nc2ccc(SC)cc2cc1C(c1ccc(Cl)cc1)C1(O)CCNC(Cc2ccc(F)c(F)c2)C1 (centres unmarked) [Compound 190]
12,7.00,Cc1cc(F)ccc1C1CC(O)(C(c2ccccc2)c2cc3cc(Br)ccc3[nH]c2=O)CCN1 (centres unmarked) [Compound 192]
13,3.17,COc1nc2ccc(SC)cc2cc1C(c1ccccc1)C1(O)CCNC(c2ccc(F)cc2C)C1 (centres unmarked) [Compound 196]
14,>19.28,COc1nc2ccc(S(C)(=O)=O)cc2cc1C(c1ccc(Cl)cc1)C1(O)CCNC(c2ccc(F)cc2C)C1 (centres unmarked) [Compound 201]
15,3.63,CSc1ccc2[nH]c(=O)c(C(c3ccc(Cl)cc3)C3(O)CCNC(Cc4ccc(F)c(F)c4)C3)cc2c1 (centres unmarked) [Compound 204]
16,14.75,COc1nc2ccc(S(C)(=O)=O)cc2cc1C(c1ccc(Cl)cc1)C1(O)CCNC(Cc2ccc(F)c(F)c2)C1 (centres unmarked) [Compound 209]
17,1.86,COc1nc2ccc(S(C)(=O)=O)cc2cc1C(c1ccc(Cl)cc1)C1(O)CCNC(Cc2ccc(F)c(F)c2)C1 (centres unmarked) [Compound 210]
18,7.60,CS(=O)(=O)c1ccc2[nH]c(=O)c(C(c3ccc(Cl)cc3)C3(O)CCNC(Cc4ccc(F)c(F)c4)C3)cc2c1 (centres unmarked) [Compound 212]
19,>17.31,CS(=O)(=O)c1ccc2[nH]c(=O)c(C(c3ccc(Cl)cc3)C3(O)CCNC(Cc4ccc(F)c(F)c4)C3)cc2c1 (centres unmarked) [Compound 213]
